Assays:
human α-thrombin = human α-thrombin (Homo sapiens, UniProt P00734); test: Thrombin inhibitory activity, chromogenic assay; type: biochemical; settings: substrate N-p-tosyl-gly-pro-lys p-nitroanilide 100 μM, thrombin 1 nM, pH 7.4, room temperature
Protocol: All dilutions were made in a buffer consisting of: 50 mM HEPES, 150 mM NaCl, 5 mM CaCl2, 0.1% PEG and at pH 7.4. Briefly, the substrate (final conc. of 100 μM) was added to thrombin (final conc. of 1 nM) and the reaction monitored for 10 mins at 405 nm using a Biotek EL340 plate reader; the assay was performed at room temperature. To obtain IC50s the data were analyzed using Kineticalc™ and processed using ActivityBase™ to obtain the IC50 value.

human plasma = test: APTT (activated partial thromboplastin time), clotting time of human plasma in vitro; type: biochemical; settings: pooled citrated human plasma; for APTT: concentration of compound to extend the normal APTT by 1.5×: 1.5× extension of clotting time; for APTT: degree of extension (ratio of clotting times in presence or absence of compound): at 100 nM compound
Protocol: Pooled citrated (0.38% trisodium citrate w/v) plasma was prepared from blood taken from healthy volunteers and stored at −70° C. The APTT tests were performed using a Thrombtrack 4 from Nycomed. Actin reagent (a reconstituted extract from dehydrated rabbit brain, also containing ellagic acid) was obtained from Baxter Healthcare Corporation USA. Briefly, citrated plasma was added to either compound or distilled water followed by addition of actin reagent. These were then mixed for 2 min at 37° C. before adding calcium chloride to initiate clotting. Compounds extended the normal clotting time, which is in the range 30-35 seconds, to varying degrees depending on their concentrations. The degrees of extension of the APTT was calculated by the ratio of clotting times in presence or absence of compound. The concentration of a compound to extend the ‘normal’ APTT by 1.5× was used as a criterion for comparing the anti-coagulant activities of compounds.

Compound | IC50 (human α-thrombin) [nM] | APTT: concentration of compound to extend the normal APTT by 1.5× (human plasma) | APTT: degree of extension (ratio of clotting times in presence or absence of compound) (human plasma)
CCN(C(=O)c1cc(C)cc(OC[C@H](C)Nc2ccncc2)c1)C(C)C [Example 1, N-Ethyl-N-isopropyl-3-methyl-5-[2S-(pyridin-4-ylamino)-propoxy]-benzamide] | < 1 | 40 (1.5×) nM | 
Cc1cc(OC[C@H](C)Nc2ccncc2)cc(C(=O)N(C(C)C)C(C)C)c1 [Example 2, N,N-Diisopropyl-3-methyl-5-[2S-(pyridin-4-ylamino)-propoxy]-benzamide] | < 1 | 80 (1.5×) nM | 
Cc1cc(OC[C@H](C)Nc2ccncc2)cc(C(=O)N(C)C(C)C)c1 [Example 3, N-Isopropyl-3,N-dimethyl-5-[2S-(pyridin-4-ylamino)-propoxy]-benzamide] | 3 | 90 (1.5×) nM | 
CCCN(C)C(=O)c1cc(C)cc(OC[C@H](C)Nc2ccncc2)c1 [Example 4, 3,N-Dimethyl-N-propyl-5-[2S-(pyridin-4-ylamino)-propoxy]-benzamide] | 5 | 97 (1.5×) nM | 
CCCN(CCC)C(=O)c1cc(C)cc(OC[C@H](C)Nc2ccncc2)c1 [Example 5, 3-Methyl-N,N-dipropyl-5-[2S-(pyridin-4-ylamino)-propoxy]-benzamide] | < 1 | 110 (1.5×) nM | 
CCCN(CC)C(=O)c1cc(C)cc(OC[C@H](C)Nc2ccncc2)c1 [Example 6, N-Ethyl-3-methyl-N-propyl-5-[2S-(pyridin-4-ylamino)-propoxy]-benzamide] | 1.5 | 120 (1.5×) nM | 
CCCCN(CCC)C(=O)c1cc(C)cc(OC[C@H](C)Nc2ccncc2)c1 [Example 7, N-Butyl-3-methyl-N-propyl-5-[2S-(pyridin-4-ylamino)-propoxy]-benzamide] | < 1 |  | 100 (1.31×)
Cc1cc(OC[C@H](C)Nc2ccncc2)cc(C(=O)N(C(C)C)C2CCCCC2)c1 [Example 8, N-Cyclohexyl-N-isopropyl-3-methyl-5-[2S-(pyridin-4-ylamino)-propoxy]-benzamide] | < 1 |  | 100 (1.32×)
CCCN(C(=O)c1cc(C)cc(OC[C@H](C)Nc2ccncc2)c1)C(C)C [Example 9, N-Isopropyl-3-methyl-N-propyl-5-[2S-(pyridin-4-ylamino)-propoxy]-benzamide] | < 1 | 60 (1.5×) nM | 
CCCN(C(=O)c1cc(Cl)cc(OC[C@H](C)Nc2ccncc2)c1)C(C)C [Example 10, 3-Chloro-N-isopropyl-N-propyl-5-[2S-(pyridin-4-ylamino)-propoxy]-benzamide] | 3.4 |  | 100 (1.28×)
CCC(COc1cc(Cl)cc(C(=O)N(C(C)C)C(C)C)c1)Nc1ccncc1.Cl (stereo not shown) [Example 11, 3-Chloro-N,N-diisopropyl-5-[2-(pyridin-4-ylamino)-butoxy]-benzamide hydrochloride] | 26 | 650 (1.5×) nM | 

— US6670381B2, “Benzamide derivatives as thrombin inhibitors” (SmithKline Beecham Corporation, priority 1998, dated 2003)
